Measurements as given in PMC7810988, “Inositol pyrophosphates promote the interaction of SPX domains with the coiled-coil motif of PHR transcription factors to regulate plant phosphate homeostasis” (Nature Communications, 2021).

Key:
Format in all cases: binding
OsSPX4–OsPHR2 = biological target: T1, OsSPX4–OsPHR2 (Oryza sativa, UniProt Q10B79); experiment: isothermal titration calorimetry
T1 construct: gene SPX4; OsSPX4 1-321 (cloning sentence prints OsSPX2 1-321, purification OsSPX4 1-321; His-Strep-Sumo tag cleaved) with full-length OsPHR2 1-426 (His-Strep-GB1 tag, TEV cleaved); E. coli; with Protein PHOSPHATE STARVATION RESPONSE 2
T1 sequence (Q10B79 whole entry): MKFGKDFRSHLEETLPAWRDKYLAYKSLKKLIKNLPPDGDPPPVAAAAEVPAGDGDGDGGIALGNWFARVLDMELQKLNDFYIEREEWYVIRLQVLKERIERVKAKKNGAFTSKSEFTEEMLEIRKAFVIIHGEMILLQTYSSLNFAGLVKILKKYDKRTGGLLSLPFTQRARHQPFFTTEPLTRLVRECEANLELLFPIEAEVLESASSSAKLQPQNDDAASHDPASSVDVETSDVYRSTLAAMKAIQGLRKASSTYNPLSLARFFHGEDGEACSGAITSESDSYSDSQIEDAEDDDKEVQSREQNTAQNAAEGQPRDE
T1 sequence (Q6Z156 whole entry partner): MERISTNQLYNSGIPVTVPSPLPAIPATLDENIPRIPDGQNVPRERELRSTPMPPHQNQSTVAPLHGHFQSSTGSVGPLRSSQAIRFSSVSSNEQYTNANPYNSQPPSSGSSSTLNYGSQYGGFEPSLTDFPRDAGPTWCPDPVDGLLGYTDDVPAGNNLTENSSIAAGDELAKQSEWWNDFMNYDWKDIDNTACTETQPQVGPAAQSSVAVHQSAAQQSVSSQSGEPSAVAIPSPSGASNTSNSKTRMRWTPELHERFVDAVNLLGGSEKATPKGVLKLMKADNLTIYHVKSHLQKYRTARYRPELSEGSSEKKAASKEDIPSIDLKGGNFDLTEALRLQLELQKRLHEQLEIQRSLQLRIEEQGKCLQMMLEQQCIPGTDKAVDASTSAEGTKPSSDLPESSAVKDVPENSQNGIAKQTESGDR

AtPHR1^280–360 [1] = biological target: T2, AtPHR1^280–360 (Arabidopsis thaliana, UniProt Q94CL7, K325A/H328A/R335A); experiment: […] TROSY NMR titration; conditions: 25 mM HEPES pH 7.0, 200 mM NaCl, 0.5 mM TCEP, 30 °C
T2 construct: gene PHR1; coiled-coil domain fragment, residues 280-360, 6xHis tag cleaved by TEV, 15N,2H-labeled, E. coli
T2 sequence (Q94CL7 280-360 K325A/H328A/R335A): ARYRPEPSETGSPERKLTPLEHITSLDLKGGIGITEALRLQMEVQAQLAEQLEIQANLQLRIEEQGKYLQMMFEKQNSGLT

AtPHR1^280–360 [2] = biological target: T3, AtPHR1^280–360 (Arabidopsis thaliana, UniProt Q94CL7); experiment: […] TROSY NMR titration; conditions: 25 mM HEPES pH 7.0, 200 mM NaCl, 0.5 mM TCEP, 30 °C
T3 construct: gene PHR1; coiled-coil domain fragment, residues 280-360, 6xHis tag cleaved by TEV, 15N,2H-labeled, E. coli
T3 sequence (Q94CL7 280-360): as the sequence (Q94CL7 280-360 K325A/H328A/R335A) above, with A46K, A49H, A56R counted along it

| Kd (OsSPX4–OsPHR2) | Structure (SMILES) | KD (AtPHR1^280–360 [1]) | KD (AtPHR1^280–360 [2]) |
| --- | --- | --- | --- |
| ~7 µM | O=P(O)(O)O[C@H]1[C@@H](OP(=O)(O)O)[C@H](OP(=O)(O)O)[C@@H](OP(=O)(O)OP(=O)(O)O)[C@H](OP(=O)(O)O)[C@H]1OP(=O)(O)O [InsP7] | – | – |
| ~3 µM | O=P(O)(O)O[C@@H]1[C@@H](OP(=O)(O)O)[C@H](OP(=O)(O)OP(=O)(O)O)[C@@H](OP(=O)(O)O)[C@H](OP(=O)(O)OP(=O)(O)O)[C@@H]1OP(=O)(O)O [InsP8] | repeated the same set of experiments using the AtPHR1^KHR/A mutant protein | The derived dissociation constant is in the millimolar range and saturation could not be reached |
